Data taken from publication PMC11965454, “Simultaneous determination of lesinurad and co-administered drugs used in management of gout comorbidities to uncover potential pharmacokinetic interaction in rat plasma” (Scientific Reports, 2025).
Where two headings read alike, the source gives them in different places.

Key:
[1] = Stability of the studied drugs in rat plasma (freeze-thaw, bench-top, long-term), HPLC-DAD; assay type: in vitro ADME; details: n = 3; for recovery at 6 h, 1000 ng/ml / recovery at 35 days, 1000 ng/ml / recovery at 1000 ng/ml: rat plasma; for recovery at 6 h, 1000 ng/ml / recovery at 6 h, 10000 ng/ml / recovery at 6 h, 25000 ng/ml: 6 h at room temperature; for recovery at 35 days, 1000 ng/ml / recovery at 35 days, 10000 ng/ml / recovery at 35 days, 25000 ng/ml: 35 days at -20 °C; for recovery at 1000 ng/ml / recovery at 10000 ng/ml / recovery at 25000 ng/ml: three cycles -20 °C / room temperature; for recovery at 6 h, 10000 ng/ml / recovery at 35 days, 10000 ng/ml / recovery at 10000 ng/ml: rat plasma, 10,000 ng/ml; for recovery at 6 h, 25000 ng/ml / recovery at 35 days, 25000 ng/ml / recovery at 25000 ng/ml: rat plasma, 25,000 ng/ml
Procedure: Stability studies were conducted by preparing low, medium and high plasma QC samples in triplicates under different conditions and comparing them with freshly prepared quality control samples. Namely, three freeze-thaw cycles (freeze at -20 °C then thaw at room temperature for three cycles), bench-top stability testing for 6 h at room temperature and long-term stability testing for 35 days at -20 °C.

[2] = Stock solution stability (methanol), HPLC-DAD; assay type: physicochemical; details: stock solution in methanol, n = 3; for recovery at 6 h, 1000 ng/ml / recovery at 6 h, 10000 ng/ml / recovery at 6 h, 25000 ng/ml: 6 h at room temperature, read-out: Stock solution stability (room temp.) Recovery%; for recovery at 30 days, 1000 ng/ml / recovery at 30 days, 10000 ng/ml / recovery at 30 days, 25000 ng/ml: 30 days at 4 °C; for recovery at 6 h, 10000 ng/ml / recovery at 30 days, 10000 ng/ml: 10,000 ng/ml; for recovery at 6 h, 25000 ng/ml / recovery at 30 days, 25000 ng/ml: 25,000 ng/ml
[3] = Drug interaction pharmacokinetic study of LES and ETC, single oral dose, plasma levels by HPLC-DAD; assay type: in vivo, Sprague-Dawley rats; details: for k el: read-out: Ke (converted); for AUC: n=5; for Change of Ke: after repeated administration of the other drug vs alone; for Change of area under the curve (AUC): single oral dose following the repeated administration of the other drug vs alone
Excerpt: The HPLC-DAD system consisted of Agilent 1200 series (auto-injector, quaternary pump, vacuum degasser and diode array and multiple wavelength detector G1315 C/D and G1365 C/D) connected to a computer loaded with Agilent ChemStation Software (Agilent Technologies, Santa Clara, CA, USA). […] The chromatographic separation was achieved using a Zorbax Eclipse Plus C18 (4.6 × 250 mm, 5 μm particle size) column attached to Zorbax Eclipse Plus C18 (4.6 × 12.5 mm, 5 μm particle size) analytical guard column (Agilent Technologies, Santa Clara, CA, USA). The gradient elution was composed of the mobile phase: acetonitrile and 0.05 M potassium dihydrogen orthophosphate eluted in the ratios and at flow rates listed in Table 1 using an injection volume of 50 µL. All determinations were performed at 25 °C. All pH measurements were made using a Hanna pH meter, (RI, USA). Calibration was done using standard buffers of pH 4 and 7 at room temperature.
The internal standard DIC (0.05 mL) was added to each 0.2 mL rat plasma sample. To the rat plasma sample, 0.6 mL of acetonitrile were added. In order to equalize the final volumes in both; the standard calibration curve samples and the rat plasma samples, up to 1 mL of methanol were added. The samples were covered, vortexed for 1 min at high speed followed by centrifugation for 10 min at ~ 2500 × g. The organic layer was transferred to HPLC autosampler vials. For each sample, 50 µL were directly injected into the HPLC system.
The animal study has been designed and the results have been reported in accordance with the ARRIVE Guidelines. All animal experiments were conducted according to an experimental protocol approved by the Institutional Animal Care and Use Committee at Alexandria University (Serial Number 135) and in compliance with the Guide for the Care and Use of Laboratory Animals of the Institute for Laboratory Animal Research of the National Academy of Sciences, U.S.A. Animals were obtained from the animal facility at the Research and Innovation Hub at Alamein International University. Single dose pharmacokinetics of LES and ETC, as well as the effect of repeated administration of one on the PK parameters of the other reflecting the PK interactions if any, were assessed as described in our previous work[33]. Since the parameters of the oral pharmacokinetic investigation in experimental animals, in terms of feeding and fasting durations, oral dosing timing and volumes, blood sampling, as well as time intervals of redosing, can be controlled with relative ease, rat group sizes of 5–6 were sufficient for the detection of statistical difference in previous studies carried out in our laboratory[34],[35], and in other groups[36],[37], including studies that looked into the pharmacokinetics of ETC and LES[27],[38]. As will be seen below, the experiment was designed for paired comparison with before and ater measurements from the same rats, further increasing the power for statistical analysis. As such, ten healthy adult male Sprague-Dawley rats (8 weeks of age, ~ 250 g weight) were randomized into two groups of five rats each: LES PK group and ETC PK group. No criteria were set for animal allocation per group. Rats were housed in polycarbonate cages on wood shavings bedding at the animal facility at Alamein International University under controlled temperature (23 °C) and humidity (45%) and a 12-hour dark/light cycle. Rats were given ad libitum access to drinking water and commercial rodent chow (21% protein, Al-Fajr Animal Feed, Beheira, Egypt) prior to and during the experiment. The PK parameters of single doses of each drug were determined at baseline in the respective group and once more after seven days of administration of the other drug, without a washout period. To elaborate, on Day 0, following twelve hours of fasting, rats in each group received a single dose of the respective drug by oral gavage (15 mg/Kg for LES[27], and 5 mg/Kg for ETC[39]). […]

plasma albumin = details: cited from earlier work
[4] = male, Sprague-Dawley, plasma, LES 15 mg/Kg single oral dose alone (Day 0), rat, Mean ± SEM
[5] = male, Sprague-Dawley, ETC 5 mg/Kg single oral dose alone (Day 0), rat plasma, Mean ± SEM

| SMILES | recovery at 6 h, 1000 ng/ml [1] [%] | recovery at 35 days, 1000 ng/ml [1] [%] | recovery at 1000 ng/ml [1] [%] | recovery at 6 h, 10000 ng/ml [1] [%] | recovery at 35 days, 10000 ng/ml [1] [%] | recovery at 10000 ng/ml [1] [%] | recovery at 6 h, 25000 ng/ml [1] [%] | recovery at 35 days, 25000 ng/ml [1] [%] | recovery at 25000 ng/ml [1] [%] | recovery at 6 h, 1000 ng/ml [2] [%] | recovery at 30 days, 1000 ng/ml [2] [%] | recovery at 6 h, 10000 ng/ml [2] [%] | recovery at 30 days, 10000 ng/ml [2] [%] | recovery at 6 h, 25000 ng/ml [2] [%] | recovery at 30 days, 25000 ng/ml [2] [%] | Change of Ke ([3]; rat) | Change of area under the curve (AUC) ([3]; rat) | also measured |
| --- | --- | --- | --- | --- | --- | --- | --- | --- | --- | --- | --- | --- | --- | --- | --- | --- | --- | --- |
| O=C(O)CSc1nnc(Br)n1-c1ccc(C2CC2)c2ccccc12 [LES, lesinurad] | 92.5 | 93.8 | 91.6 | 92.5 | 94.7 | 93.8 | 96.1 | 94.6 | 92.7 | 97.3 | 98.7 | 96.5 | 97.2 | 94.8 | 99.2 | neither t1/2 nor Ke changed | increased | Tmax ([3]; LES 15 mg/Kg single oral dose alone (Day 0), rat): 2 h; Ka ([3]; LES 15 mg/Kg single oral dose alone (Day 0), rat, Mean ± SEM): 3.32 ± 0.78 h⁻¹; half-life [3, 4]: 3.96 ± 1.07 h; k el [3, 4]: 7.78e-05 s⁻¹; AUC ([3]; male, Sprague-Dawley, LES 15 mg/Kg single oral dose alone (Day 0), rat plasma, Mean ± SEM): 9600 ± 1890 ng·h/mL; Change of Cmax ([3]; rat, LES after repeated ETC administration vs alone): sharp increase in Cmax; Binding to plasma albumin (plasma albumin; ref PMID: 31191704): extensively bound to plasma albumin |
| Cc1ccc(-c2ncc(Cl)cc2-c2ccc(S(C)(=O)=O)cc2)cn1 [ETC, etoricoxib] | 97.5 | 95.8 | 98 | 92.8 | 94.1 | 95.3 | 92.7 | 90.4 | 96.5 | 99.5 | 98.3 | 99.5 | 96.4 | 98.8 | 99.2 | neither t1/2 nor Ke changed | increased | Ka ([3]; ETC 5 mg/Kg single oral dose alone (Day 0), rat, method of residuals, Mean ± SEM): 1.82 ± 0.55 h⁻¹; k el ([3]; male, Sprague-Dawley, plasma, ETC 5 mg/Kg single oral dose alone (Day 0), rat, Mean ± SEM): 4.17e-05 s⁻¹; half-life ([3]; male, Sprague-Dawley, plasma, ETC 5 mg/Kg single oral dose alone (Day 0), rat, one phase decay, Mean ± SEM): 4.88 ± 0.56 h; Tmax ([3]; male, Sprague-Dawley, plasma, ETC 5 mg/Kg single oral dose alone (Day 0), rat, read-out: Tmax): 1 h; Cmax [3, 5]: 1170 ± 148 ng/mL; AUC [3, 5]: 11200 ng·h/mL; Change of absorption rate constant (Ka) ([3]; rat, ETC in the continued presence of LES vs alone): increased Ka; Binding to plasma albumin (plasma albumin; ref PMID: 18840026): extensively bound to plasma albumin |
| COC(=O)[C@@H]1CC2=CC(=O)CC[C@]2(C)[C@@]23O[C@@H]2C[C@@]2(C)[C@@H](CC[C@@]24CCC(=O)O4)[C@H]13 [EPL, eplerenone] | 105 | 104 | 91.9 | 96.8 | 97.6 | 94.3 | 94.2 | 92.6 | 103 | 101 | 102 | 102 | 97.9 | 102 | 98.9 |  |  |  |
